Molecules are shown by their SMILES. The source made the active and inactive calls. No rule for the calls is given here.

A short description of this assay: non-covalent RecA intein splicing inhibitors, dose response, biochemical, cell-free, fluorescence, secondary screen (AID 449750).
As to `O=C(c1ccc(N2CCN(CCO)CC2)nc1)N1CCOCC1`, the AC50 – broadly, the concentration giving half of the maximal activity seen – was > 38 µM (inactive).

Consider `O=C(Nc1ccc(Cl)c(Cl)c1)Nc1ccccc1NS(=O)(=O)c1cccs1`, for which the concentration at half-maximal activity (AC50) is 30.3 µM. Under `CC(=O)N(C1=C(N)C(=O)c2ccccc2C1=O)c1ccccc1` stands 10.6 µM. As to `O=c1[nH]c2ccc(Cl)cc2c(-c2ccccc2)c1SC(=S)N1CCCCC1`, the AC50 is > 38 µM (inactive). Next, `COc1cccc(C(c2c(C)[nH]n(-c3ccccc3)c2=O)c2c(C)[nH]n(-c3ccccc3)c2=O)c1OC`: 2.19 µM; `O=c1c(Cl)c(Cl)cnn1Cc1ccccc1Cl`: 36.8 µM; `Oc1ccc(O)c2c1C1c3ccccc3C2c2ccccc21`: 38.4 µM. For `COc1ccc(S(=O)(=O)Nc2cc(SCC(=O)O)c(O)c3ccccc23)cc1`, the AC50 was 2.14 µM. For `CNC1=C(N(C(C)=O)c2ccc(Br)cc2)C(=O)c2ccccc2C1=O`, the AC50 is 2.43 µM. Next, `CN1CCN(C(c2ccc(Br)cc2)c2cc(Cl)c3cccnc3c2O)CC1` (stereo not given): 5.33 µM; `CC(C)S(=O)(=O)C1=NSC2=NC(=O)/C(=C\c3ccc(OC(=O)c4ccco4)cc3)C(=N)N21`: 30.6 µM.

Take `Cc1oc2c(c1C(=O)N1CCOCC1)C(=O)c1ccccc1C2=O`: the half-maximal activity concentration (AC50) is 9.55 µM. Under `Cc1ccc(/C=C2\SC(N3CCN(C(c4ccccc4)c4ccccc4)CC3)=NC2=O)o1` stands 4.48 µM; under `C=COC(=O)CSc1snc(SCC(=O)OC)c1C#N`, > 38 µM (inactive). Next, `Cc1[nH]n(-c2ccccc2)c(=O)c1C(c1ccc(C(=O)O)cc1)c1c(C)[nH]n(-c2ccccc2)c1=O`: 2.11 µM.

As to `COc1cc(C(c2c(C)[nH][nH]c2=O)c2c(C)[nH][nH]c2=O)cc([N+](=O)[O-])c1O`, the half-maximal activity concentration (AC50) is 10.7 µM.

Turning to `CCCCCCCCOC(=O)c1c(CSC(=N)N)n(C)c2cc(Br)c(OC(C)=O)cc12`, the half-maximal activity concentration (AC50) is 14.5 µM. As to `O=C(CCl)Nc1ccc(-c2ccccc2)cc1`, the AC50 is 5.56 µM. As to `Cc1ccc(NC(=O)c2sc3ncnc(N4CCN(c5ccccn5)CC4)c3c2C)c(C)c1`, the AC50 was > 38 µM (inactive). Under `CCOC(=O)C1Nc2c(F)cc(C)cc2C2c3ccccc3CC12` (stereo not given) stands 33.7 µM.

As for `CN(C)/C=C/C(=O)c1ccc2noc(-c3ccc(F)cc3)c2c1`, the AC50 was > 38 µM (inactive).

For `COc1cc(C(=O)c2nccc3cc(OC)c(OC)cc23)c([N+](=O)[O-])cc1OC`, the AC50 was 18.3 µM. With `CCS(=O)(=O)c1ncc(Cl)c(C(=O)Nc2ccc(S(=O)(=O)N(C)c3ccccc3)cc2)n1`, the half-maximal activity concentration (AC50) was 1.66 µM.

As for `O=C(CSc1c2c(nc3cc(Cl)ccc13)CCCC2)NCc1ccco1`, the AC50 was 26.4 µM. `C/C(CC(=O)Nc1ccc(F)cc1)=N\NC(=O)COc1ccccc1`: the AC50 was > 38 µM (inactive).

Consider `CCOC(=O)c1c(CCl)nc2ccccc2c1-c1ccccc1`, for which the half-maximal activity concentration (AC50) was 8.34 µM. Under `CCN(CC)CCN1C(=O)c2cccc3cc(N)cc(c23)C1=O` stands 1.69 µM; under `COC(=O)c1ccc(NC2=C(Cl)C(=O)OC2OC(=O)c2ccccc2)cc1` (stereo not given), > 38 µM (inactive).

Regarding `O=Nc1c(O)c2ccccc2c2ccccc12`, the concentration at half-maximal activity (AC50) was 2.68 µM. Under `COc1ccc(OC)c(N2C(=O)C(Cl)=C(N3CCCCC3)C2=O)c1` stands > 38 µM (inactive); under `O=C(Cc1cc(=O)[nH][nH]1)N/N=C/c1cccc2ccccc12`, 17.4 µM; under `[O-]C1=N/[N+](=C/c2ccc(Cl)cc2)CC1`, > 38 µM (inactive). `CCOc1ccc(/C=C2\SC(=S)N(CCC(=O)Nc3ccccc3C(=O)O)C2=O)cc1`: the AC50 was 18.3 µM. With `CC(=O)Nc1ccc(NC(=O)CSc2ncc(C(=O)Nc3ccc(F)cc3)c(=O)n2C)cc1`, the AC50 was > 38 µM (inactive). Next, `CC(CCc1ccccc1)NC(=O)COC(=O)c1cc(NS(=O)(=O)c2ccc(Cl)c([N+](=O)[O-])c2)ccc1O` (stereo not given): 18.8 µM; `Cc1cccc(Cn2ncc(Cl)c(Cl)c2=O)c1`: 18 µM. Take `COc1cccc(/C=C/C(=O)c2ccc(NS(=O)(=O)c3ccc(C)cc3)cc2)c1`: the half-maximal activity concentration (AC50) is 6.79 µM. With `CCO/C=C1/C(=O)N(C)C(=O)c2cc(OC)ccc21`, the AC50 is > 38 µM (inactive). Under `CC1=NNC(=O)C1Cc1ccccc1` (stereo not given) stands > 38 µM (inactive); under `COc1ccc(-c2cc(=O)[nH][nH]2)cc1OC`, 4.35 µM; under `O=c1[nH]c(/C=C/c2cccnc2)c([N+](=O)[O-])c(=O)[nH]1`, > 38 µM (inactive). `Cc1nn(-c2ccccc2)c2c1C1(C(=O)N3c4c(cccc41)C(C)CC3(C)C)C(C#N)=C(N)O2` (stereo not given): the half-maximal activity concentration (AC50) is 23.9 µM. For the compound `CCN(CC)C(=O)CSc1nnc2nnc3cc(Cl)ccc3n12`, the AC50 was > 38 µM (inactive). In the case of `Cc1ccc(CN=Cc2[nH]c3ccc(Br)c(Cl)c3c2O)cc1`, the AC50 was 22.9 µM. Take `OC(COC(c1ccc(Cl)cc1)c1ccc(Cl)cc1)CN1CCc2ccccc2C1` (stereo not given): the half-maximal activity concentration (AC50) was 3.84 µM. Under `N#CC(C#N)C(c1ccsc1)c1c(-c2ccccc2)[nH][nH]c1=O` (stereo not given) stands 37.8 µM. Take `CCOc1cc(/C=C2\C(=O)N(c3ccc(C(N)=O)cc3)N=C2C)ccc1OC(=O)c1cccs1`: the concentration at half-maximal activity (AC50) is 2.76 µM. Next, `CCc1ccc(NC(=O)c2nc(S(=O)(=O)Cc3ccccc3)ncc2Cl)cc1`: > 38 µM (inactive); `N#CC1=C(N)N(c2ccccc2)C(c2cccc([N+](=O)[O-])c2)C1(C#N)C#N` (stereo not given): > 38 µM (inactive). Under `CC1=NN(c2ccc(Cl)c(C(=O)O)c2)C(=O)/C1=C\c1ccc(-c2ccc(C(=O)O)cc2)o1` stands 34.1 µM; under `O=C(O)CSc1c2c(nc3cc(C(=O)Nc4cccc(C(F)(F)F)c4)ccc13)CCCC2`, 21.7 µM. Take `COc1ccc(Nc2nc(N3CCCCC3)nc3ccccc23)c(OC)c1`: the AC50 is > 38 µM (inactive). Next, `O=C(NC1C(=O)NNC1c1ccccc1)c1ccccc1` (stereo not given): > 38 µM (inactive).

Regarding `CN1N=C(C(C)(C)C)CC1=O`, the AC50 is > 38 µM (inactive). Turning to `Cn1cnc([N+](=O)[O-])c1Sc1nnc(-c2cccnc2)n1C`, the AC50 is > 38 µM (inactive). As to `CC(=O)Nc1ccc(NC(=O)CSc2ncc(C(=O)Nc3ccccc3)c(=O)n2C)cc1`, the AC50 was 1.04 µM. Next, `Cc1ccc(S(=O)(=O)Nc2ccc(O)c3ccccc23)c(C)c1`: 0.409 µM; `COc1ccc(C(=O)NC(=S)NNC(=O)CCc2ccccc2)cc1`: > 38 µM (inactive). Consider `COc1ccc(N2C(=O)C(Cl)=C(Oc3cccc(OC)c3)C2=O)cc1`, for which the AC50 is > 38 µM (inactive). As for `CCOC(=O)c1c(NC(=O)CCl)sc(C(=O)N(CC)CC)c1C`, the AC50 was 4.22 µM. Next, `Cc1[nH][nH]c(=O)c1C(c1ccc(Cl)cc1)c1c(C)[nH][nH]c1=O`: 18.1 µM; `Cc1ccc(NC(=O)c2nc(S(=O)(=O)Cc3ccccc3)ncc2Cl)cc1`: > 38 µM (inactive). As to `COc1ccc(Nc2cnn(-c3nc4ccccc4s3)c(=O)c2Cl)cc1`, the AC50 was > 38 µM (inactive). Under `O=C(N/N=C\c1ccc(-c2ccccc2[N+](=O)[O-])o1)C1COc2ccccc2O1` (stereo not given) stands 8.06 µM. As for `Cc1[nH][nH]c(=O)c1C(c1ccc(-c2ccc(F)cc2)o1)c1c(C)[nH][nH]c1=O`, the AC50 is 3.95 µM.

On to `Cc1ccc2[nH]c3c(c2c1)CN(C(=O)CN1CCSCC1)CC3`, for which the AC50 is > 38 µM (inactive). As for `CC(C)c1nnc(NC(=O)c2nc(S(=O)(=O)Cc3ccc(F)cc3)ncc2Cl)s1`, the AC50 was > 38 µM (inactive). Consider `O=C(CCl)N1CCCC1c1ccc2c(c1)OCCO2` (stereo not given), for which the AC50 was 4.86 µM. Under `CS(=O)(=O)c1nc([N+](=O)[O-])nn1CCCc1ccccc1` stands 10.7 µM; under `COc1ccc(C(=O)c2c(C(F)(F)F)oc3c2C(=O)c2ccccc2C3=O)cc1`, 0.93 µM. Next, `O=C(CCl)N(c1ccccc1)c1c[nH]c2ccccc12`: 1.46 µM; `O=C1CC(c2ccccc2)=NN1c1ccc([N+](=O)[O-])cc1`: 7.43 µM; `COC(=O)CCSc1cc(NCCOC(C)=O)c([N+](=O)[O-])c2nonc12`: > 38 µM (inactive).

With `O=C1/C(=C\c2cccc(O)c2O)SC(=S)N1Cc1ccccc1`, the AC50 is > 38 µM (inactive).

With `Cc1cc(-c2ccccc2)nc2cc(C(=O)N(Cc3ccccc3)Cc3ccccc3)nn12`, the AC50 was 18.8 µM.

In the case of `Cn1cnc([N+](=O)[O-])c1Sc1ccc(C(C)(C)C)cc1`, the AC50 was > 38 µM (inactive). `O=C(CCl)N1CCN(S(=O)(=O)c2ccc3ccccc3c2)CC1`: the half-maximal activity concentration (AC50) is 6.51 µM.

For `O=S(=O)(Cc1ccccc1)c1cnc2ccccc2n1`, the AC50 was > 38 µM (inactive).

For `Cc1onc(-c2c(Cl)cccc2Cl)c1C(=O)N1C(C)CCCC1C` (stereo not given), the AC50 is > 38 µM (inactive). Consider `Cc1[nH][nH]c(=O)c1C(c1ccc(N(C)C)c(Br)c1)c1c(C)[nH][nH]c1=O`, for which the AC50 is 38.7 µM. For the compound `CC(C)[C@H](NC(=O)OC(C)(C)C)c1nnc(S(=O)(=O)Cc2c(F)cccc2Cl)o1`, the AC50 is > 38 µM (inactive). Next, `COc1cccc(/C=C2\SC(=S)N(CCCC(=O)N(CCO)c3ccccc3)C2=O)c1`: > 38 µM (inactive); `O=C(CCl)Nc1ccc(N2CCCCCC2)cc1`: 6.59 µM. For `C=CCN1C(=O)NC(c2ccc(OC)cc2)(C(F)(F)F)S/C1=C(\C#N)c1nnc(N2CCOCC2)n1-c1ccccc1` (stereo not given), the AC50 is 32.4 µM.

Take `COc1ccc(NC(=S)NC(NC(=O)CCl)C(Cl)(Cl)Cl)c([N+](=O)[O-])c1` (stereo not given): the half-maximal activity concentration (AC50) was 2.67 µM. Next, `COC(=O)c1cc(NC(=O)Nc2ccccc2OC)cc(C(=O)OC)c1`: > 38 µM (inactive). Next, `CC(=O)Nc1ccc(S(=O)(=O)/N=C2\C(=O)c3ccccc3C([O-])=C2n2cc[n+](-c3ccccn3)c2)cc1`: 5.71 µM. As to `CCc1[nH]nc2c1C(c1cccc(OC(=O)N3CCOCC3)c1)C(C#N)=C(N)O2` (stereo not given), the AC50 is > 38 µM (inactive). Under `CCOc1ccc(N2C(=O)/C(=C\c3ccc(OC)c(O)c3)S(=O)(=O)C2c2cccc([N+](=O)[O-])c2)cc1` (stereo not given) stands > 38 µM (inactive); under `CC(C)c1nnc(NC(=O)c2nc(S(=O)(=O)Cc3ccccc3F)ncc2Cl)s1`, > 38 µM (inactive).

For the origin of these results see PubChem BioAssay AID449750 (Broad Institute, 2010).
